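Step 1: Grow cells in 96-well plates. Step 2: Expose to compound for 48 hours at 5 concentrations. Step 3: Interpolate endpoints linearly; if unreached, use highest concentration. TGI is the concentration that stops growth completely.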
Assays:
Test in all cases: NCI tumour cell line growth inhibition, 48 h
[1] = test system: M14 melanoma
[2] = test system: OVCAR-8 ovarian
[3] = test system: UACC-257 melanoma
[4] = test system: OVCAR-3 ovarian
[5] = test system: SK-MEL-5 melanoma
[6] = test system: HOP-62 NSCLC
[7] = test system: MOLT-4 leukemia
[8] = test system: SF-268 CNS
[9] = test system: KM20L2 colon
[10] = test system: SW-620 colon
[11] = test system: SK-MEL-28 melanoma
[12] = test system: KM12 colon
[13] = test system: LXFL 529 NSCLC
[14] = test system: NCI-H460 lung
[15] = test system: RXF 393 renal
[16] = test system: NCI-H522 lung
[17] = test system: SR leukemia
[18] = test system: OVCAR-4 ovarian
[19] = test system: M19-MEL melanoma
[20] = test system: A498 renal
[21] = test system: LOX IMVI melanoma
[22] = test system: RPMI-8226 leukemia
[23] = test system: HCT-116 colon
[24] = test system: DLD-1 colon
[25] = test system: HT29 colon
[26] = test system: SNB-19 CNS
[27] = test system: SNB-78 CNS
[28] = test system: A549 NSCLC
[29] = test system: COLO 205 colon
[30] = test system: CAKI-1 renal
[31] = test system: HCT-15 colon
[32] = test system: ACHN renal
[33] = test system: MALME-3M melanoma
[34] = test system: CCRF-CEM leukemia
[35] = test system: 786-0 renal
[36] = test system: EKVX NSCLC
[37] = test system: HOP-18 NSCLC
[38] = test system: HL-60(TB) leukemia
[39] = test system: OVCAR-5 ovarian
[40] = test system: DMS 114 small cell lung
[41] = test system: IGROV1 ovarian
[42] = test system: HCC-2998 colon
[43] = test system: SN12C renal
[44] = test system: K-562 leukemia
[45] = test system: XF 498 CNS
[46] = test system: UO-31 renal
[47] = test system: NCI-H23 lung
[48] = test system: HOP-92 NSCLC
[49] = test system: DMS 273 small cell lung
[50] = test system: SF-295 CNS
[51] = test system: U251 CNS
[52] = test system: NCI-H226 lung
[53] = test system: SNB-75 CNS
[54] = test system: SK-OV-3 ovarian
[55] = test system: TK-10 renal
[56] = test system: UACC-62 melanoma
[57] = test system: SF-539 CNS
[58] = test system: SK-MEL-2 melanoma

N#CNC(=NCc1ccccc1)NCc1ccccc1
TGI [1]: > 100 µM | TGI [2]: > 100 µM | TGI [3]: > 100 µM | TGI [4]: > 100 µM | TGI [5]: > 100 µM | TGI [6]: > 100 µM | TGI [7]: > 100 µM | TGI [8]: 48.6 µM | TGI [9]: > 100 µM | TGI [10]: > 62.7 µM | TGI [11]: > 100 µM | TGI [12]: > 100 µM | TGI [13]: > 100 µM | TGI [14]: > 100 µM | TGI [15]: > 89 µM | TGI [16]: > 100 µM | TGI [17]: 69 µM | TGI [18]: > 100 µM | TGI [19]: > 96.3 µM | TGI [20]: > 100 µM | TGI [21]: > 100 µM | TGI [22]: > 100 µM | TGI [23]: 33.6 µM | TGI [24]: > 71 µM | TGI [25]: > 100 µM | TGI [26]: > 100 µM | TGI [27]: > 100 µM | TGI [28]: > 100 µM | TGI [29]: > 57.3 µM | TGI [30]: > 100 µM | TGI [31]: > 55.8 µM | TGI [32]: > 100 µM | TGI [33]: > 100 µM | TGI [34]: > 100 µM | TGI [35]: > 100 µM | TGI [36]: > 100 µM | TGI [37]: > 100 µM | TGI [38]: > 100 µM | TGI [39]: > 100 µM | TGI [40]: > 53.4 µM | TGI [41]: > 100 µM | TGI [42]: > 100 µM | TGI [43]: > 100 µM | TGI [44]: > 100 µM | TGI [45]: > 100 µM | TGI [46]: > 100 µM | TGI [47]: > 100 µM | TGI [48]: > 100 µM | TGI [49]: > 56 µM | TGI [50]: > 100 µM | TGI [51]: > 70.7 µM | TGI [52]: > 100 µM | TGI [53]: > 100 µM | TGI [54]: > 100 µM | TGI [55]: > 100 µM | TGI [56]: > 100 µM | TGI [57]: > 100 µM | TGI [58]: > 100 µM

From PubChem BioAssay (NCI)
